Reference: patent US20050245399A1, “Pyrazole derivatives as herbicidal compositions containing them” (ISHIHARA SANGYO KAISHA, LTD., priority 2004, published 2005)

Legend:
Type in all cases: in vivo
[1] = test system: velvetleaf (Abutilon theophrasti): ABUTH; experiment: Test Example 1 pre-emergence herbicidal activity, ABUTH; details: Rate 63 g a.i./ha, visually observed 20th to 23rd day after application
Outline: (§1)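 Seeds go into pots of upland field soil; one day on, the diluted formulation (500 L/ha water) is sprayed pre-emergence. Effects are scored visually 20 to 23 days post-application as 0–100% growth control.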

[2] = test system: wheat (Triticum aestivum L.), TRZAX; experiment: Test Example 2 post-emergence (foliage treatment) herbicidal activity, TRZAX; details: 63 g a.i./ha
Outline: (§2)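 Foliar spray of formulated compound (500 L/ha dilution water, 0.1% v/v spreader) onto young potted plants at defined leaf stages. Scored 0-100% by visual inspection 20-23 d post-spray.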

[3] = test system: green foxtail (Setaria viridis L.), SETVI; experiment: Test Example 2 post-emergence (foliage treatment) herbicidal activity, SETVI; details: 63 g a.i./ha
Outline: as §2

[4] = test system: redroot pigweed (Amaranthus retroflexus L.), AMARE; experiment: Test Example 2 post-emergence (foliage treatment) herbicidal activity, AMARE; details: 63 g a.i./ha
Outline: (§3)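 Sow in upland soil; grow to leaf stage (barnyardgrass 1.1-2.1, crabgrass 1.0-2.0, pigweed 0.1-1.5, rice 1.0-2); spray foliage at a fixed active ingredient rate in 500 L/ha water with 0.1% (v/v) spreader; rate growth control visually at 20-23 days on a 0-100% scale.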

[5] = test system: soybean (Glycine max Merr.): GLXMA; experiment: Test Example 1 pre-emergence herbicidal activity, GLXMA; details: Rate 63 g a.i./ha, visually observed 20th to 23rd day after application
Outline: as §1

[6] = test system: rice (Oryza sativa L.): ORYSA; experiment: Test Example 1 pre-emergence herbicidal activity, ORYSA; details: Rate 63 g a.i./ha, visually observed 20th to 23rd day after application
Outline: as §1

[7] = test system: crabgrass (Digitaria sanguinalis L.): DIGSA; experiment: Test Example 1 pre-emergence herbicidal activity, DIGSA; details: Rate 63 g a.i./ha, visually observed 20th to 23rd day after application
Outline: as §1

[8] = test system: crabgrass (Digitaria sanguinalis L.), DIGSA; experiment: Test Example 2 post-emergence (foliage treatment) herbicidal activity, DIGSA; details: 63 g a.i./ha
Outline: as §3

[9] = test system: corn (Zea mays L.): ZEAMX; experiment: Test Example 1 pre-emergence herbicidal activity, ZEAMX; details: Rate 63 g a.i./ha, visually observed 20th to 23rd day after application
Outline: as §1

[10] = test system: prickly sida (Sida spinosa L.): SEDSP; experiment: Test Example 1 pre-emergence herbicidal activity, SIDSP; details: Rate 63 g a.i./ha, visually observed 20th to 23rd day after application
Outline: as §1

[11] = test system: soybean (Glycine max Merr.), GLXMA; experiment: Test Example 2 post-emergence (foliage treatment) herbicidal activity, GLXMA; details: 63 g a.i./ha
Outline: as §2

[12] = test system: redroot pigweed (Amaranthus retroflexus L.): AMARE; experiment: Test Example 1 pre-emergence herbicidal activity, AMARE; details: Rate 63 g a.i./ha, visually observed 20th to 23rd day after application
Outline: as §1

[13] = test system: prickly sida (Sida spinosa L.), SIDSP; experiment: Test Example 2 post-emergence (foliage treatment) herbicidal activity, SIDSP; details: 63 g a.i./ha
Outline: as §2

[14] = test system: barnyardgrass (Echinochloa crus-galli L.): ECHCG; experiment: Test Example 1 pre-emergence herbicidal activity, ECHCG; details: Rate 63 g a.i./ha, visually observed 20th to 23rd day after application
Outline: as §1

[15] = test system: wheat (Triticum aestivum L.): TRZAX; experiment: Test Example 1 pre-emergence herbicidal activity, TRZAX; details: Rate 63 g a.i./ha, visually observed 20th to 23rd day after application
Outline: as §1

[16] = test system: rice (Oryza sativa L.), ORYSA; experiment: Test Example 2 post-emergence (foliage treatment) herbicidal activity, ORYSA; details: 63 g a.i./ha
Outline: as §3

[17] = test system: green foxtail (Setaria viridis L.): SETVI; experiment: Test Example 1 pre-emergence herbicidal activity, SETVI; details: Rate 63 g a.i./ha, visually observed 20th to 23rd day after application
Outline: as §1

[18] = test system: velvetleaf (Abutilon theophrasti), ABUTH; experiment: Test Example 2 post-emergence (foliage treatment) herbicidal activity, ABUTH; details: 63 g a.i./ha
Outline: as §2

[19] = test system: barnyardgrass (Echinochloa crus-galli L.), ECHCG; experiment: Test Example 2 post-emergence (foliage treatment) herbicidal activity, ECHCG; details: 63 g a.i./ha
Outline: as §3

[20] = test system: corn (Zea mays L.), ZEAMX; experiment: Test Example 2 post-emergence (foliage treatment) herbicidal activity, ZEAMX; details: 63 g a.i./ha
Outline: as §2

SMILES | Pre-emergence Herbicidal Activity ABUTH (growth controlling degree) [1] [%] | growth controlling degree, TRZAX [2] [%] | growth controlling degree, SETVI [3] [%] | growth controlling degree, AMARE [4] [%] | Pre-emergence Herbicidal Activity GLXMA (growth controlling degree) [5] [%] | Pre-emergence Herbicidal Activity ORYSA (growth controlling degree) [6] [%] | Pre-emergence Herbicidal Activity DIGSP (growth controlling degree) [7] [%] | growth controlling degree, DIGSP [8] [%] | Pre-emergence Herbicidal Activity ZEAMX (growth controlling degree) [9] [%] | Pre-emergence Herbicidal Activity SIDSP (growth controlling degree) [10] [%] | growth controlling degree, GLXMA [11] [%] | Pre-emergence Herbicidal Activity AMARE (growth controlling degree) [12] [%] | growth controlling degree, SIDSP [13] [%] | Pre-emergence Herbicidal Activity ECHCG (growth controlling degree) [14] [%] | Pre-emergence Herbicidal Activity TRZAX (growth controlling degree) [15] [%] | growth controlling degree, ORYSA [16] [%] | Pre-emergence Herbicidal Activity SETVI (growth controlling degree) [17] [%] | growth controlling degree, ABUTH [18] [%] | growth controlling degree, ECHCO [19] [%] | growth controlling degree, ZEAMX [20] [%]
C#CCOC(=O)Nc1c(OC)c(Cl)cc(F)c1-c1nn(C)c(OC(F)F)c1Cl [Compound 1-74] | 100 | 50 | 100 | 100 | 0 | 50 | 100 | 70 | 10 | 100 | 60 | 100 | 100 | 90 | 30 | 95 | 100 | 100 | 98 | 30
COc1c(Cl)cc(F)c(-c2nn(C)c(OC(F)F)c2Cl)c1NC(=O)C=Cc1ccc(C)cc1 [Compound 1-255] | 0 | 10 | 50 | 100 | 0 | 0 | 10 | 30 | 0 | 0 | 50 | 70 | 100 | 0 | 0 | 40 | 10 | 100 | 50 | 20
COc1c(Cl)cc(F)c(-c2nn(C)c(OC(F)F)c2Cl)c1NC(=O)OC(C)C [Compound 1-75] | 100 | 50 | 100 | 100 | 0 | 30 | 100 | 50 | 10 | 60 | 60 | 100 | 100 | 70 | 30 | 80 | 100 | 100 | 100 | 50
